The Ki is a measure of affinity in units of concentration, obtained from inhibition or displacement. For orientation: Kd means the free concentration of one partner at which half of the binding sites on the other are occupied at equilibrium, for simple one-to-one binding. The low end stands for a tighter complex, the high end for a looser complex.

Active and inactive are the calls of the source. The calls are words filed in the database; no cut-off is given here.

The results in this text go back to ChEMBL document CHEMBL4342462, “Discovery and Characterization of 2,5-Substituted Benzoic Acid Dual Inhibitors of the Anti-apoptotic Mcl-1 and Bfl-1 Proteins” (J Med Chem, 2020).

The target of experiment [1] is T1, Induced myeloid leukemia cell differentiation protein Mcl-1 (Homo sapiens, UniProt Q07820).
T1 sequence (Q07820 whole entry): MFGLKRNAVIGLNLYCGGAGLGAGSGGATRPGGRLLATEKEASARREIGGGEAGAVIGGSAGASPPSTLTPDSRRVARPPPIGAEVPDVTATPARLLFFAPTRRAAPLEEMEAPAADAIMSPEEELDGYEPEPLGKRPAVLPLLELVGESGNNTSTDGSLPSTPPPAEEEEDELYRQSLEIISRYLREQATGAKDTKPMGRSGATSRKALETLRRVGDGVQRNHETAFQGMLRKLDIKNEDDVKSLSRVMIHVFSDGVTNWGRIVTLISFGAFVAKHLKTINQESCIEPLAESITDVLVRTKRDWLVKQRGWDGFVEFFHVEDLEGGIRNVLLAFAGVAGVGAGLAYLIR
Description: Inhibition of N-terminal His6-tagged human Mcl1 expressed in Escherichia coli Rosetta2 DE3 by fluorescent labeled Flu-Bid peptide based fluorescence polarization assay
Experiment [2] has as its target T2, Bcl-2-related protein A1 (Homo sapiens, UniProt Q16548).
T2 sequence (Q16548 whole entry): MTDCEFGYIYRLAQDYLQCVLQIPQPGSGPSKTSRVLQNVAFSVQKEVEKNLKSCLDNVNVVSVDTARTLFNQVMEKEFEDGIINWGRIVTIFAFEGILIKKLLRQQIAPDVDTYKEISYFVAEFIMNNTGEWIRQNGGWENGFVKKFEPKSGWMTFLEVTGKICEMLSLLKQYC

For experiment [3], the target named is T3, Apoptosis regulator Bcl-2 (Homo sapiens, UniProt P10415).
T3 sequence (P10415 whole entry): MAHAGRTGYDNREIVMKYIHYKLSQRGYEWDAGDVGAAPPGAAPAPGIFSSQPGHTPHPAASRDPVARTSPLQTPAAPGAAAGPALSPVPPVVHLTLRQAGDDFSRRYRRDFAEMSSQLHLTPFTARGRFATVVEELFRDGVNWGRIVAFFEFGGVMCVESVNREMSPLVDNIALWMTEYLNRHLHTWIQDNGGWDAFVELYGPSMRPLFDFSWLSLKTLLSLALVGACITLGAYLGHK
Experiment [4] addresses T4, Bcl-2-like protein 1 (Homo sapiens, UniProt Q07817).
Experiment [5] addresses T1, Induced myeloid leukemia cell differentiation protein Mcl-1. This is another data set of the same source.
Description: Binding affinity to immobilized biotin-labeled and N-terminal His6-tagged human Mcl-1 expressed in Escherichia coli Rosetta2 DE3 by biolayer interferometry
Experiment [6] has as its target T5, Bcl-2-related protein A1 (Homo sapiens) (UniProt Q16548).
T5 sequence (whole entry): T2 sequence (Q16548 whole entry)

The target in experiment [7] is T2, Bcl-2-related protein A1. The source holds these as a separate data set.
The target in experiment [8] is T4, Bcl-2-like protein 1. As to the kind of experiment: Inhibition of Bcl-xL (unknown origin) expressed in Eu-Myc cells assessed as induction of cell death at 75 to 100 uM incubated for 24 hrs by violet LIVE/DEAD fixable dead cell staining based flow cytometry. For orientation: A flow cytometer gives signals particle by particle.
Experiment [9] concerns the target T3, Apoptosis regulator Bcl-2. As to the kind of experiment: Inhibition of Bcl2 (unknown origin) expressed in Eu-Myc cells assessed as induction of cell death at 75 to 100 uM incubated for 24 hrs by violet LIVE/DEAD fixable dead cell staining based flow cytometry.

T4 sequence (Q07817 whole entry): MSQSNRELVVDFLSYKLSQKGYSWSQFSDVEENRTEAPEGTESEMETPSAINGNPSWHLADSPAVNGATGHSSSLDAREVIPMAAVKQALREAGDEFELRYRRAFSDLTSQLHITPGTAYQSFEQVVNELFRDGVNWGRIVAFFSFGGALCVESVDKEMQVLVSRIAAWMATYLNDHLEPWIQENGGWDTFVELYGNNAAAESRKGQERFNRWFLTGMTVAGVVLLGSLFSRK

`O=C(CCSc1ccc(NS(=O)(=O)c2ccccc2)c(C(=O)O)c1)Nc1ccccc1`: the Ki in experiment [1] was 13.1 µM; on Bcl-2-related protein A1 [2], 14.8 µM.

On to `O=C(CCCSc1ccc(NS(=O)(=O)c2ccccc2)c(C(=O)O)c1)Nc1ccccc1`, for which the inhibition constant (Ki) in experiment [1] is 32.8 µM; at Bcl-2-related protein A1 [2], above 70 µM.

Consider `O=C(O)c1cc(SCCc2ccccc2)ccc1NS(=O)(=O)c1ccc(-c2ccccc2)nc1`, for which the inhibition constant (Ki) in experiment [1] stood at 0.2 µM; on Bcl-2-related protein A1 [2], 0.28 µM.

For the molecule `CC(C)(C)c1ccc(N2CCN(S(=O)(=O)Nc3ccc(SCCc4cccc(O)c4)cc3C(=O)O)CC2)cc1`, the values for the Ki (in experiment [1]; at Bcl-2-related protein A1 [2]) were 0.29 µM and 0.25 µM, respectively.

Take `O=C(O)c1cc(SCCc2ccccc2)ccc1NS(=O)(=O)c1ccc(Br)cc1`: the inhibitory constant (Ki) (in [1]; at Bcl-2-related protein A1 [2]) was 0.81 µM throughout.

As for `O=C(O)c1cc(SCCc2ccccc2)ccc1NS(=O)(=O)N1CCN(c2ccccc2)CC1`, the inhibition constant (Ki) in experiment [1] came to 0.57 µM; in experiment [3], 11.7 µM; on Bcl-2-like protein 1 [4], 6.6 µM; at Bcl-2-related protein A1 [2] it was 0.76 µM.

Take `O=C(O)c1cc(NCCc2ccccc2)ccc1NS(=O)(=O)c1ccccc1`: the Ki is 4.7 µM in experiment [1] and 3.8 µM on Bcl-2-related protein A1 [2].

As to `O=C(Nc1ccc(SCCc2ccccc2)cc1C(=O)O)c1ccccc1`, the Ki in experiment [1] came out at 2.7 µM; on Bcl-2-related protein A1 [2], 4.6 µM.

For `O=C(Cc1ccccc1)Nc1ccc(NS(=O)(=O)c2ccccc2)c(C(=O)O)c1`, the results for the inhibition constant (Ki) (in experiment [1]; on Bcl-2-related protein A1 [2]) were 70.4 µM and above 70 µM, respectively.

For the molecule `O=C(CCc1ccccc1)Nc1ccc(NS(=O)(=O)c2ccccc2)c(C(=O)O)c1`, the Ki in experiment [1] is 19 µM; at Bcl-2-related protein A1 [2], 62 µM.

`CC(C)(C)c1ccc(N2CCN(S(=O)(=O)Nc3ccc(SCCc4ccccc4)cc3C(=O)O)CC2)cc1`: the Ki in [1] stood at 0.073 µM; in experiment [3], 1.2 µM; on Bcl-2-like protein 1 [4] it was 3.5 µM; on Bcl-2-related protein A1 [2], 0.084 µM. Moreover, the Kd in experiment [5] came to 0.49 µM; on Bcl-2-related protein A1 [7], 0.92 µM. Besides, the outcome in experiment [6] was Active. The inhibition result (on Bcl-2-like protein 1 [8]; in experiment [9]) was “Active” each time.

As for `O=C(O)c1cc(SCc2ccccc2)ccc1NS(=O)(=O)c1ccccc1`, the Ki in experiment [1] is 2.6 µM; at Bcl-2-related protein A1 [2], 3 µM.

Take `O=C(O)c1cc(SCCc2ccccc2)ccc1NS(=O)(=O)c1ccc(C2CCCCC2)cc1`: the values for the inhibition constant (Ki) (in [1]; on Bcl-2-related protein A1 [2]) were 0.087 µM and 0.17 µM, respectively.

Turning to `Nc1ccc(SCCc2ccccc2)cc1C(=O)O`, the inhibitory constant (Ki) in experiment [1] turned out to be 3.4 µM; at Bcl-2-related protein A1 [2] it was 3.7 µM.

For the molecule `O=C(O)c1cc(SCCc2ccccc2)ccc1NS(=O)(=O)c1ccc(-c2ccccc2)cc1`, the Ki in experiment [1] worked out at 0.09 µM; at Bcl-2-related protein A1 [2], 0.15 µM.

With `O=C(O)c1ccccc1NS(=O)(=O)c1ccccc1`, the Ki in experiment [1] was 47.8 µM; at Bcl-2-related protein A1 [2], above 100 µM.

With `O=C(O)c1cc(SCCc2ccccc2)ccc1NS(=O)(=O)CCc1ccccc1`, the Ki (in experiment [1]; on Bcl-2-related protein A1 [2]) was 1.7 µM each time.

For the molecule `O=C(O)c1cc(SCCc2ccccc2)ccc1NS(=O)(=O)c1ccccc1`, the Ki in [1] is 1.5 µM; in experiment [3], above 25 µM; at Bcl-2-like protein 1 [4] it was above 25 µM; on Bcl-2-related protein A1 [2], 1.6 µM.

Take `O=C(O)c1cc(SCCc2ccccc2)ccc1NS(=O)(=O)N1CCN(Cc2ccccc2)CC1`: the inhibition constant (Ki) amounted to 0.84 µM in [1] and 1 µM on Bcl-2-related protein A1 [2].

On to `CC(C)(C)c1ccc(N2CCN(S(=O)(=O)Nc3ccc(SCCC(=O)Nc4ccccc4)cc3C(=O)O)CC2)cc1`, for which the Ki is 0.95 µM in [1], above 25 µM at Bcl-2-like protein 1 [4] and 1.1 µM at Bcl-2-related protein A1 [2].

As for `COc1cccc(CCSc2ccc(NS(=O)(=O)N3CCN(c4ccc(C(C)(C)C)cc4)CC3)c(C(=O)O)c2)c1`, the Ki in [1] amounted to 0.074 µM; in [3], 1.2 µM; at Bcl-2-like protein 1 [4], 6.7 µM; on Bcl-2-related protein A1 [2] it was 0.1 µM.

`O=C(O)c1cc(OCCc2ccccc2)ccc1NS(=O)(=O)c1ccccc1`: the Ki in experiment [1] amounted to 6.1 µM; at Bcl-2-related protein A1 [2] it was 10.6 µM.

In the case of `O=C(O)c1cc(SCCc2ccccc2)ccc1NS(=O)(=O)N1CCC(c2ccccc2)CC1`, the Ki in [1] turned out to be 0.33 µM; on Bcl-2-related protein A1 [2], 0.39 µM.

On to `O=C(O)c1cc(SCCc2ccccc2)ccc1NS(=O)(=O)c1cccs1`, for which the Ki worked out at 2 µM in experiment [1] and 3.4 µM at Bcl-2-related protein A1 [2].
